{
  "source": "patent US11053234B2",
  "about": "(GlaxoSmithKline Intellectual Property Development Limited, priority 2016, dated 2021)",
  "data": [
    {"tested_on": "male C57BI/6N mice", "experiment": "In vivo assay for functional response to muscle injury (eccentric contraction-induced muscle fatigue)", "set-up": "species or system mouse", "settings": "PO 3, 10 and 30 mg/kg BID beginning 10 min prior to eccentric contraction challenge; vs vehicle; FIG. 1", "from_the_text": "(§1) In Vivo Assays for Functional Response to Muscle Injury\n(§2) Under anesthesia, the right hind limb of a mouse is restrained at the knee and the foot attached to a motorized footplate/force transducer. Needle electrodes are inserted into the upper limb, either side of the sciatic nerve and a current sufficient to elicit a maximal muscle contraction is applied. Muscle tension is produced by moving the footplate to lengthen the plantarflexor muscles while the limb is under maximal stimulation. This is repeated 60 times to fatigue the muscles of the lower limb. Anesthesia, limb immobilization and limb stimulation are then repeated at regular intervals to measure maximal isometric force in the recovering limb. 7 to 9 animals are tested for each test condition.", "values": [
      {"smiles": "CC(C)(O)[C@H]1CC[C@H](NC(=O)N2CC(Oc3cc(F)cc4scnc34)C2)CC1", "note": "[Example 141, 3-((6-Fluorobenzo[d]thiazol-4-yl)oxy)-N-((trans)-4-(2-hydroxypropan-2-yl)cyclohexyl)azetidine-1-carboxamide]", "kinetics of recovery of maximal isometric force after eccentric contraction injury": "acceleration in the kinetics of recovery"}
    ]},
    {"tested_on": "male C57BI/6N mice", "experiment": "In vivo assay for functional response to muscle injury (eccentric contraction-induced muscle fatigue)", "set-up": "species or system mouse", "settings": "PO 3, 10 and 30 mg/kg BID; 24 hours; vs vehicle; FIG. 1", "from_the_text": "as §1, §2", "values": [
      {"smiles": "CC(C)(O)[C@H]1CC[C@H](NC(=O)N2CC(Oc3cc(F)cc4scnc34)C2)CC1", "note": "[Example 141, 3-((6-Fluorobenzo[d]thiazol-4-yl)oxy)-N-((trans)-4-(2-hydroxypropan-2-yl)cyclohexyl)azetidine-1-carboxamide]", "initial magnitude of the injury, isometric limb force 24-hours following protocol initiation": "reduced the initial magnitude of the injury"}
    ]},
    {"biological_target": "T1, haematopoietic prostaglandin D synthase (H-PGDS) (Homo sapiens, UniProt O60760)", "T1 construct": "Full length human H-PGDS cDNA (Invitrogen Ultimate ORF 10H13026) was amplified by PCR; 6-His (N); TEV protease cleavage site (N); made in house; host or cells: E. coli BL21 (DE3*), vector pET22b+", "T1 sequence (O60760 whole entry)": "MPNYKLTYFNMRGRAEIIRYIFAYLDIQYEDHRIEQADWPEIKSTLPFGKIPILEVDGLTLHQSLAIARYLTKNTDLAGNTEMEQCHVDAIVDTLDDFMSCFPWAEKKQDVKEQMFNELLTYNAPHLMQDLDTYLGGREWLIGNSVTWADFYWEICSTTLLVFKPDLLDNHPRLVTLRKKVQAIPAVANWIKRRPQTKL", "experiment": "H-PGDS RapidFire high throughput mass spectrometry assay (conversion of PGH2 to PGD2)", "format": "biochemical", "settings": "10 nM H-PGDS, PGH2 formed in situ by COX-2 from arachidonic acid; read-out: Potency Range (mean pIC50) (converted)", "method_in_brief": "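RapidFire SPE–MS read-out calculated percent conversion from relative PGD2 and PGF2α (substrate surrogate) levels. Recombinant full-length human H-PGDS (His-tag, E. coli) turned over PGH2, produced in situ at ˜10 μM by human COX-2 (FLAG-tag, Sf9 cells) acting on arachidonic acid.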", "units": {"IC50": "µM"}, "values": [
      {"smiles": "CC(C)(O)[C@H]1CC[C@H](NC(=O)N2CC(Oc3cc(F)cc4scnc34)C2)CC1", "note": "[Example 141, 3-((6-Fluorobenzo[d]thiazol-4-yl)oxy)-N-((trans)-4-(2-hydroxypropan-2-yl)cyclohexyl)azetidine-1-carboxamide]", "IC50": "0.01 to 0.0794"},
      {"smiles": "Cc1nnc(NC(=O)N2CC(Oc3cccc4scnc34)C2)s1", "note": "[Example 321, 3-(Benzo[d]thiazol-4-yloxy)-N-(5-methyl-1,3,4-thiadiazol-2-yl)azetidine-1-carboxamide]", "IC50": "0.01 to 0.0794"},
      {"smiles": "Cn1ccc(NC(=O)N2CC(Oc3cccc4scnc34)C2)n1", "note": "[Example 322, 3-(Benzo[d]thiazol-4-yloxy)-N-(1-methyl-1H-pyrazol-3-yl)azetidine-1-carboxamide]", "IC50": "0.1 to 1"},
      {"smiles": "COc1cncc(NC(=O)N2CC(Oc3cccc4scnc34)C2)c1", "note": "[Example 323, 3-(Benzo[d]thiazol-4-yloxy)-N-(5-methoxypyridin-3-yl)azetidine-1-carboxamide]", "IC50": "0.01 to 0.0794"},
      {"smiles": "Cn1cc(NC(=O)N2CC(Oc3cccc4scnc34)C2)cn1", "note": "[Example 324, 3-(Benzo[d]thiazol-4-yloxy)-N-(1-methyl-1H-pyrazol-4-yl)azetidine-1-carboxamide]", "IC50": "0.1 to 1"},
      {"smiles": "CCn1nnnc1NC(=O)N1CC(Oc2cccc3scnc23)C1", "note": "[Example 325, 3-(Benzo[d]thiazol-4-yloxy)-N-(1-ethyl-1H-tetrazol-5-yl)azetidine-1-carboxamide]", "IC50": "0.1 to 1"},
      {"smiles": "COC(=O)C12CCC(NC(=O)[C@H]3C[C@H](Oc4cccc5scnc45)C3)(CC1)CC2", "note": "[Example 326, Methyl 4-((trans)-3-(benzo[d]thiazol-4-yloxy)cyclobutane-1-carboxamido)bicyclo[2.2.2]octane-1-carboxylate]", "IC50": "0.01 to 0.0794"},
      {"smiles": "COC(=O)C12CCC(NC(=O)N3CC(Oc4cccc5scnc45)C3)(CC1)CC2", "note": "[Example 327, Methyl 4-(3-(benzo[d]thiazol-4-yloxy)azetidine-1-carboxamido)bicyclo[2.2.2]octane-1-carboxylate]", "IC50": "0.01 to 0.0794"},
      {"smiles": "CC(C)c1nnc(NC(=O)N2CC(Oc3cccc4scnc34)C2)o1", "note": "[Example 328, 3-(Benzo[d]thiazol-4-yloxy)-N-(5-isopropyl-1,3,4-oxadiazol-2-yl)azetidine-1-carboxamide]", "IC50": "0.1 to 1"},
      {"smiles": "Cc1n[nH]c(NC(=O)N2CC(Oc3cccc4scnc34)C2)c1C#N", "note": "[Example 329, 3-(Benzo[d]thiazol-4-yloxy)-N-(4-cyano-3-methyl-1H-pyrazol-5-yl)azetidine-1-carboxamide]", "IC50": "0.1 to 1"},
      {"smiles": "CC(C)(O)[C@H]1CC[C@H](NC(=O)N2CC(Oc3cc(C(N)=O)cc4scnc34)C2)CC1", "note": "[Example 330, 4-((1-(((trans)-4-(2-Hydroxypropan-2-yl)cyclohexyl)carbamoyl)azetidin-3-yl)oxy)benzo[d]thiazole-6-carboxamide]", "IC50": "0.01 to 0.0794"},
      {"smiles": "Cc1nnc(NC(=O)[C@H]2C[C@H](Oc3cccc4scnc34)C2)s1", "note": "[Example 331, (trans)-3-(Benzo[d]thiazol-4-yloxy)-N-(5-methyl-1,3,4-thiadiazol-2-yl)cyclobutane-1-carboxamide]", "IC50": "0.01 to 0.0794"},
      {"smiles": "CC(C)(C)c1nnc(NC(=O)N2CC(Oc3cccc4scnc34)C2)s1", "note": "[Example 332]", "IC50": "< 0.01"},
      {"smiles": "O=C(Nc1nnc(C2CC2)s1)N1CC(Oc2cccc3scnc23)C1", "note": "[Example 333, 3-(Benzo[d]thiazol-4-yloxy)-N-(5-cyclopropyl-1,3,4-thiadiazol-2-yl)azetidine-1-carboxamide]", "IC50": "< 0.01"},
      {"smiles": "CC(C)c1nnc(NC(=O)N2CC(Oc3cccc4scnc34)C2)s1", "note": "[Example 334, 3-(Benzo[d]thiazol-4-yloxy)-N-(5-isopropyl-1,3,4-thiadiazol-2-yl)azetidine-1-carboxamide]", "IC50": "0.01 to 0.0794"},
      {"smiles": "CCOCc1nc(NC(=O)[C@H]2C[C@H](Oc3cc(F)cc4scnc34)C2)n[nH]1", "note": "[Example 335]", "IC50": "0.01 to 0.0794"},
      {"smiles": "Cc1nc(NC(=O)N2CC(Oc3cccc4scnc34)C2)ns1", "note": "[Example 336, 3-(Benzo[d]thiazol-4-yloxy)-N-(5-methyl-1,2,4-thiadiazol-3-yl)azetidine-1-carboxamide]", "IC50": "0.01 to 0.0794"},
      {"smiles": "CC(C)c1nsc(NC(=O)N2CC(Oc3cccc4scnc34)C2)n1", "note": "[Example 337, 3-(Benzo[d]thiazol-4-yloxy)-N-(3-isopropyl-1,2,4-thiadiazol-5-yl)azetidine-1-carboxamide]", "IC50": "< 0.01"},
      {"smiles": "O=C(Nc1nc(C2CC2)ns1)N1CC(Oc2cccc3scnc23)C1", "note": "[Example 338, 3-(Benzo[d]thiazol-4-yloxy)-N-(3-cyclopropyl-1,2,4-thiadiazol-5-yl)azetidine-1-carboxamide]", "IC50": "< 0.01"},
      {"smiles": "CC(C)(C)c1nsc(NC(=O)N2CC(Oc3cccc4scnc34)C2)n1", "note": "[Example 339]", "IC50": "0.01 to 0.0794"}
    ]},
    {"tested_on": "normal mice", "experiment": "in vivo assay for muscle function following limb muscle injury", "settings": "FIG. 1", "values": [
      {"smiles": "CC(C)(O)[C@H]1CC[C@H](NC(=O)N2CC(Oc3cc(F)cc4scnc34)C2)CC1", "note": "[Example 141, 3-((6-Fluorobenzo[d]thiazol-4-yl)oxy)-N-((trans)-4-(2-hydroxypropan-2-yl)cyclohexyl)azetidine-1-carboxamide]", "functional repair dose response curves of H-PGDS inhibition following limb muscle injury": "protection and acceleration of functional repair"}
    ]}
  ]
}
